# Experiments:
# Type in all cases: in vivo
# [1] = test system: barnyard grass; test: Test Example 1: weedkilling efficacy, preemergent weed treatment in the submerged state; A: barnyard grass; settings: treatment dosage 252 g/ha
# Summary of the method: (§1)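 Pots of alluvial soil flooded 4 cm deep, sown with barnyard grass, bulrush and oval-leafed pondweed and transplanted with 2.5-leaf rice. Emulsified compound applied to the water surface on sowing day at stated g/ha; greenhouse 25–30 °C, effects assessed 3 weeks after treatment.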
# [2] = test system: fig-leafed goosefoot; test: Test Example 4: weedkilling efficacy by foliar treatment; M: fig-leafed goosefoot; settings: treatment dosage 315 g/ha
# Summary of the method: (§2)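 Seeds are spot-sown into sterilized diluvial soil and covered with about 1.5 cm of soil. After 14 days' greenhouse growth at 25 to 30° C, plants are sprayed on stems and leaves with diluted emulsion at the stated g/ha rate, then scored at 3 weeks.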
# [3] = test system: crabgrass; test: Test Example 3: weedkilling efficacy through soil treatment; D: crabgrass; settings: treatment dosage 315 g/ha
# Summary of the method: (§3)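 Crop and weed responses were judged three weeks after a uniform surface spray of the water-diluted emulsion at the given g/ha rate. Seeds sat beneath about 1.5 cm of sterilized diluvial soil, and boxes stood in a greenhouse at 25 to 30° C.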
# [4] = test system: Indian mallow; test: Test Example 3: weedkilling efficacy through soil treatment; K: Indian mallow; settings: treatment dosage 315 g/ha
# Summary of the method: as §3
# [5] = test system: oval-leafed pondweed; test: Test Example 1: weedkilling efficacy, preemergent weed treatment in the submerged state; C: oval-leafed pondweed; settings: treatment dosage 252 g/ha
# Summary of the method: as §1
# [6] = test system: green foxtail; test: Test Example 4: weedkilling efficacy by foliar treatment; E: green foxtail; settings: treatment dosage 315 g/ha
# Summary of the method: as §2
# [7] = test system: catchweed; test: Test Example 4: weedkilling efficacy by foliar treatment; O: catchweed; settings: treatment dosage 315 g/ha
# Summary of the method: as §2
# [8] = test system: green foxtail; test: Test Example 3: weedkilling efficacy through soil treatment; E: green foxtail; settings: treatment dosage 315 g/ha
# Summary of the method: as §3
# [9] = test system: beet; test: Test Example 4: foliar treatment, effect on crop; f: beet; settings: treatment dosage 315 g/ha
# Summary of the method: as §2
# [10] = test system: black-grass; test: Test Example 3: weedkilling efficacy through soil treatment; H: black-grass; settings: treatment dosage 315 g/ha
# Summary of the method: as §3
# [11] = test system: Italian ryegrass; test: Test Example 4: weedkilling efficacy by foliar treatment; I: Italian ryegrass; settings: treatment dosage 315 g/ha
# Summary of the method: as §2
# [12] = test system: corn; test: Test Example 4: foliar treatment, effect on crop; c: corn; settings: treatment dosage 315 g/ha
# Summary of the method: as §2
# [13] = test system: redroot pigweed; test: Test Example 4: weedkilling efficacy by foliar treatment; L: redroot pigweed; settings: treatment dosage 315 g/ha
# Summary of the method: as §2
# [14] = test system: transplanted rice; test: Test Example 1: preemergent weed treatment in the submerged state, effect on crop; a: transplanted rice; settings: treatment dosage 252 g/ha
# Summary of the method: as §1
# [15] = test system: wild oat; test: Test Example 3: weedkilling efficacy through soil treatment; G: wild oat; settings: treatment dosage 315 g/ha
# Summary of the method: as §3
# [16] = test system: catchweed; test: Test Example 3: weedkilling efficacy through soil treatment; O: catchweed; settings: treatment dosage 315 g/ha
# Summary of the method: as §3
# [17] = test system: bulrush; test: Test Example 1: weedkilling efficacy, preemergent weed treatment in the submerged state; B: bulrush; settings: treatment dosage 252 g/ha
# Summary of the method: as §1
# [18] = test system: birds-eye speedwell; test: Test Example 3: weedkilling efficacy through soil treatment; p: birds-eye speedwell; settings: treatment dosage 315 g/ha
# Summary of the method: as §3
# [19] = test system: wheat; test: Test Example 4: foliar treatment, effect on crop; e: wheat; settings: treatment dosage 315 g/ha
# Summary of the method: as §2
# [20] = test system: soybean; test: Test Example 3: soil treatment, effect on crop; d: soybean; settings: treatment dosage 315 g/ha
# Summary of the method: as §3
# [21] = test system: fig-leafed goosefoot; test: Test Example 3: weedkilling efficacy through soil treatment; M: fig-leafed goosefoot; settings: treatment dosage 315 g/ha
# Summary of the method: as §3
# [22] = test system: Indian mallow; test: Test Example 4: weedkilling efficacy by foliar treatment; K: Indian mallow; settings: treatment dosage 315 g/ha
# Summary of the method: as §2
# [23] = test system: oval-leafed pondweed; test: Test Example 2: weedkilling efficacy, growth period weed treatment in the submerged state; C: oval-leafed pondweed; settings: treatment dosage 252 g/ha
# Summary of the method: (§4)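 Barnyard grass, bulrush and oval-leafed pondweed sown in alluvial soil under 4 cm flooding, greenhouse 25 to 30° C. At 1-2 leaf stage, water-diluted emulsion applied to the water surface at stated g/ha dosages; effects scored 3 weeks later.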
# [24] = test system: Italian ryegrass; test: Test Example 3: weedkilling efficacy through soil treatment; I: Italian ryegrass; settings: treatment dosage 315 g/ha
# Summary of the method: as §3
# [25] = test system: soybean; test: Test Example 4: foliar treatment, effect on crop; d: soybean; settings: treatment dosage 315 g/ha
# Summary of the method: as §2
# [26] = test system: directly sown rice; test: Test Example 4: foliar treatment, effect on crop; b: directly sown rice; settings: treatment dosage 315 g/ha
# Summary of the method: as §2
# [27] = test system: wild oat; test: Test Example 4: weedkilling efficacy by foliar treatment; G: wild oat; settings: treatment dosage 315 g/ha
# Summary of the method: as §2
# [28] = test system: beet; test: Test Example 3: soil treatment, effect on crop; f: beet; settings: treatment dosage 315 g/ha
# Summary of the method: as §3
# [29] = test system: wheat; test: Test Example 3: soil treatment, effect on crop; e: wheat; settings: treatment dosage 315 g/ha
# Summary of the method: as §3
# [30] = test system: redroot pigweed; test: Test Example 3: weedkilling efficacy through soil treatment; L: redroot pigweed; settings: treatment dosage 315 g/ha
# Summary of the method: as §3
# [31] = test system: directly sown rice; test: Test Example 3: soil treatment, effect on crop; b: directly sown rice; settings: treatment dosage 315 g/ha
# Summary of the method: as §3
# [32] = test system: black-grass; test: Test Example 4: weedkilling efficacy by foliar treatment; H: black-grass; settings: treatment dosage 315 g/ha
# Summary of the method: as §2
# [33] = test system: chickweed; test: Test Example 4: weedkilling efficacy by foliar treatment; N: chickweed; settings: treatment dosage 315 g/ha
# Summary of the method: as §2
# [34] = test system: chickweed; test: Test Example 3: weedkilling efficacy through soil treatment; N: chickweed; settings: treatment dosage 315 g/ha
# Summary of the method: as §3
# [35] = test system: barnyard grass; test: Test Example 2: weedkilling efficacy, growth period weed treatment in the submerged state; A: barnyard grass; settings: treatment dosage 252 g/ha
# Summary of the method: as §4
# [36] = test system: corn; test: Test Example 3: soil treatment, effect on crop; c: corn; settings: treatment dosage 315 g/ha
# Summary of the method: as §3
# [37] = test system: bulrush; test: Test Example 2: weedkilling efficacy, growth period weed treatment in the submerged state; B: bulrush; settings: treatment dosage 252 g/ha
# Summary of the method: as §4
# [38] = test system: crabgrass; test: Test Example 4: weedkilling efficacy by foliar treatment; D: crabgrass; settings: treatment dosage 315 g/ha
# Summary of the method: as §2
# [39] = test system: birds-eye speedwell; test: Test Example 4: weedkilling efficacy by foliar treatment; p: birds-eye speedwell; settings: treatment dosage 315 g/ha
# Summary of the method: as §2
smiles,measurement,setting,value
CC1=C(c2ccccc2)C(=O)N(C(C)(C)C(=O)Nc2cncc(C(F)(F)F)c2)CO1 [B-3-03],A (barnyard grass) weedkilling efficacy grade,[1],"5 (weed kill ratio 90% or more, (practically complete withering))"
same,M (fig-leafed goosefoot) weedkilling efficacy grade,[2],"2 (weed kill ratio 20% or more, less than 40%)"
same,D (crabgrass) weedkilling efficacy grade,[3],"5 (weed kill ratio 90% or more, (practically complete withering))"
same,K (Indian mallow) weedkilling efficacy grade,[4],0 (weed kill ratio 5% or less (practically no effect))
same,C (oval-leafed pondweed) weedkilling efficacy grade,[5],"5 (weed kill ratio 90% or more, (practically complete withering))"
same,E (green foxtail) weedkilling efficacy grade,[6],"5 (weed kill ratio 90% or more, (practically complete withering))"
same,O (catchweed) weedkilling efficacy grade,[7],0 (weed kill ratio 5% or less (practically no effect))
same,E (green foxtail) weedkilling efficacy grade,[8],"5 (weed kill ratio 90% or more, (practically complete withering))"
same,f (beet) effect on crop grade,[9],0 (weed kill ratio 5% or less (practically no effect))
same,H (black-grass) weedkilling efficacy grade,[10],"5 (weed kill ratio 90% or more, (practically complete withering))"
same,I (Italian ryegrass) weedkilling efficacy grade,[11],"5 (weed kill ratio 90% or more, (practically complete withering))"
same,c (corn) effect on crop grade,[12],"4 (weed kill ratio 70% or more, less than 90%)"
same,L (redroot pigweed) weedkilling efficacy grade,[13],"2 (weed kill ratio 20% or more, less than 40%)"
same,a (transplanted rice) effect on crop grade,[14],0 (weed kill ratio 5% or less (practically no effect))
same,G (wild oat) weedkilling efficacy grade,[15],"4 (weed kill ratio 70% or more, less than 90%)"
same,O (catchweed) weedkilling efficacy grade,[16],0 (weed kill ratio 5% or less (practically no effect))
same,B (bulrush) weedkilling efficacy grade,[17],"5 (weed kill ratio 90% or more, (practically complete withering))"
same,P (birds-eye speedwell) weedkilling efficacy grade,[18],"3 (weed kill ratio 40% or more, less than 70%)"
same,e (wheat) effect on crop grade,[19],0 (weed kill ratio 5% or less (practically no effect))
same,d (soybean) effect on crop grade,[20],0 (weed kill ratio 5% or less (practically no effect))
same,M (fig-leafed goosefoot) weedkilling efficacy grade,[21],"1 (weed kill ratio 5% or more, less than 20%)"
same,K (Indian mallow) weedkilling efficacy grade,[22],"2 (weed kill ratio 20% or more, less than 40%)"
same,C (oval-leafed pondweed) weedkilling efficacy grade,[23],"5 (weed kill ratio 90% or more, (practically complete withering))"
same,I (Italian ryegrass) weedkilling efficacy grade,[24],"5 (weed kill ratio 90% or more, (practically complete withering))"
same,d (soybean) effect on crop grade,[25],"3 (weed kill ratio 40% or more, less than 70%)"
same,b (directly sown rice) effect on crop grade,[26],"5 (weed kill ratio 90% or more, (practically complete withering))"
same,G (wild oat) weedkilling efficacy grade,[27],"4 (weed kill ratio 70% or more, less than 90%)"
same,f (beet) effect on crop grade,[28],"2 (weed kill ratio 20% or more, less than 40%)"
same,e (wheat) effect on crop grade,[29],0 (weed kill ratio 5% or less (practically no effect))
same,L (redroot pigweed) weedkilling efficacy grade,[30],0 (weed kill ratio 5% or less (practically no effect))
same,b (directly sown rice) effect on crop grade,[31],"4 (weed kill ratio 70% or more, less than 90%)"
same,H (black-grass) weedkilling efficacy grade,[32],"5 (weed kill ratio 90% or more, (practically complete withering))"
same,N (chickweed) weedkilling efficacy grade,[33],"2 (weed kill ratio 20% or more, less than 40%)"
same,N (chickweed) weedkilling efficacy grade,[34],0 (weed kill ratio 5% or less (practically no effect))
same,A (barnyard grass) weedkilling efficacy grade,[35],"5 (weed kill ratio 90% or more, (practically complete withering))"
same,c (corn) effect on crop grade,[36],"4 (weed kill ratio 70% or more, less than 90%)"
same,B (bulrush) weedkilling efficacy grade,[37],"5 (weed kill ratio 90% or more, (practically complete withering))"
same,D (crabgrass) weedkilling efficacy grade,[38],"5 (weed kill ratio 90% or more, (practically complete withering))"
same,P (birds-eye speedwell) weedkilling efficacy grade,[39],"1 (weed kill ratio 5% or more, less than 20%)"
